The target in the assay is SARS2 coronavirus 3CL protease (Severe acute respiratory syndrome coronavirus 2 (2019-nCoV) (SARS-CoV-2), UniProt P0DTD1). Description: SARS2 Coronavirus 3CL Protease Assay (FRET). In kind it is biochemical. As to conditions: SARS2 3CLPro FRET assay; 5 nM enzyme, 30 min pre-incubation with compound, 15 uM peptide substrate, 4 h room temperature.

What is called IC50 is the concentration needed to halve the response being measured.

With `COC(=O)N[C@H](C(=O)N1CC2(CCCCC2)C[C@H]1C(=O)N[C@@H](CCC(C)(F)F)C(=O)C(=O)NC1CC1)C(F)(F)F` [Example 46, Methyl ((R)-3-((S)-3-(((S)-1-(cyclopropylamino)-6,6-difluoro-1,2-dioxoheptan-3-yl)carbamoyl)-2-azaspiro[4.5]decan-2-yl)-1,1,1-trifluoro-3-oxopropan-2-yl)carbamate], the concentration for half-maximal inhibition (IC50) was 34 nM.
Consider `COC(=O)N[C@H](C(=O)N1C[C@H](OC(F)(F)F)C(C)(C)[C@H]1C(=O)N[C@@H](CCC(C)(F)F)C(=O)C(=O)NC1CC1)C(C)(C)C` [Example 48, Methyl ((S)-1-((2S,4R)-2-(((S)-1-(cyclopropylamino)-6,6-difluoro-1,2-dioxoheptan-3-yl)carbamoyl)-3,3-dimethyl-4-(trifluoromethoxy)pyrrolidin-1-yl)-3,3-dimethyl-1-oxobutan-2-yl)carbamate], for which the IC50 was found to be 45 nM.
The figure for `CC(C)OC(=O)N[C@H](C(=O)N1CC2(CCCCC2)C[C@H]1C(=O)N[C@@H](CCC(C)(F)F)C(=O)C(=O)NC1CC1)C1CCCCC1` [Example 50, Isopropyl ((S)-1-cyclohexyl-2-((S)-3-(((S)-1-(cyclopropylamino)-6,6-difluoro-1,2-dioxoheptan-3-yl)carbamoyl)-2-azaspiro[4.5]decan-2-yl)-2-oxoethyl)carbamate] is 62 nM; for `CNC(=O)C(=O)[C@H](CCC(C)(F)F)NC(=O)[C@@H]1CC2(CN1C(=O)[C@@H](NC(=O)OC)C(C)(C)C)CC(F)(F)C2` [Example 53, Methyl ((S)-1-((S)-7-(((S)-6,6-difluoro-1-(methylamino)-1,2-dioxoheptan-3-yl)carbamoyl)-2,2-difluoro-6-azaspiro[3.4]octan-6-yl)-3,3-dimethyl-1-oxobutan-2-yl)carbamate] it is 196 nM; for `COC(=O)N[C@H](C(=O)N1C2CCC(CC2)[C@H]1C(=O)N[C@@H](CCC(C)(F)F)C(=O)C(=O)NC1CC1)C(C)(C)C` [Example 59, Methyl ((S)-1-((S)-3-(((S)-1-(cyclopropylamino)-6,6-difluoro-1,2-dioxoheptan-3-yl)carbamoyl)-2-azabicyclo[2.2.2]octan-2-yl)-3,3-dimethyl-1-oxobutan-2-yl)carbamate] it is 37 nM.
For `COC(=O)N[C@H](C(=O)N1C[C@H]2[C@@H]([C@H]1C(=O)N[C@@H](CCC(C)(F)F)C(=O)C(=O)NC1CC1)C21CCOCC1)C(C)(C)C` [Example 60, Methyl ((S)-1-((1R,2S,5S)-2-(((S)-1-(cyclopropylamino)-6,6-difluoro-1,2-dioxoheptan-3-yl)carbamoyl)tetrahydro-3-azaspiro[bicyclo[3.1.0]hexane-6,4′-pyran]-3-yl)-3,3-dimethyl-1-oxobutan-2-yl)carbamate], the concentration for half-maximal inhibition (IC50) was 19 nM.
Turning to `COC(=O)N[C@H](C(=O)N1CC[C@@H](C(F)(F)F)C[C@H]1C(=O)N[C@@H](CCC(C)(F)F)C(=O)C(=O)NC1CC1)C(C)(C)C` [Example 61, Methyl ((S)-1-((2S,4R)-2-(((S)-1-(cyclopropylamino)-6,6-difluoro-1,2-dioxoheptan-3-yl)carbamoyl)-4-(trifluoromethyl)piperidin-1-yl)-3,3-dimethyl-1-oxobutan-2-yl)carbamate], the IC50 was found to be 16 nM.
The figure for `CNC(=O)C(=O)[C@H](CCC(C)(F)F)NC(=O)[C@@H]1CC2(CCCCC2)CN1C(=O)[C@@H](NC(=O)OC)C(C)(C)C` [Example 62, Methyl ((S)-1-((S)-3-(((S)-6,6-difluoro-1-(methylamino)-1,2-dioxoheptan-3-yl)carbamoyl)-2-azaspiro[4.5]decan-2-yl)-3,3-dimethyl-1-oxobutan-2-yl)carbamate] is 8.8 nM; for `COC(=O)N[C@H](C(=O)N1CC[C@@H](C(F)(F)F)C[C@H]1C(=O)N[C@@H](CCC(C)(F)F)C(=O)C(=O)NC1CC1)c1ccccc1` [Example 65, Methyl ((S)-2-((2S,4R)-2-(((S)-1-(cyclopropylamino)-6,6-difluoro-1,2-dioxoheptan-3-yl)carbamoyl)-4-(trifluoromethyl)piperidin-1-yl)-2-oxo-1-phenylethyl)carbamate] it is 24 nM.
The result for `CC(F)(F)CC[C@H](NC(=O)[C@@H]1[C@@H]2[C@H](CN1C(=O)[C@@H](NC(=O)OCc1ccccc1)C1CCCCC1)C21CCCCC1)C(=O)C(=O)NC1CC1` [Example 66, Benzyl ((S)-1-cyclohexyl-2-((1R,2S,5S)-2-(((S)-1-(cyclopropylamino)-6,6-difluoro-1,2-dioxoheptan-3-yl)carbamoyl)-3-azaspiro[bicyclo[3.1.0]hexane-6,1'-cyclohexan]-3-yl)-2-oxoethyl)carbamate] reads 9.9 nM; that for `COC(=O)N[C@H](C(=O)N1C[C@H](C(F)(F)F)C[C@H]1C(=O)N[C@@H](CCC(C)(F)F)C(=O)C(=O)NC1CC1)C(C)(C)C` [Example 67, Methyl ((S)-1-((2S,4R)-2-(((S)-1-(cyclopropylamino)-6,6-difluoro-1,2-dioxoheptan-3-yl)carbamoyl)-4-(trifluoromethyl)pyrrolidin-1-yl)-3,3-dimethyl-1-oxobutan-2-yl)carbamate], 20 nM.
On to `COC(=O)N[C@@H](Cc1ccccc1)C(=O)N1CC[C@@H](C(F)(F)F)C[C@H]1C(=O)N[C@@H](CCC(C)(F)F)C(=O)C(=O)NC1CC1` [Example 68, Methyl ((S)-1-((2S,4R)-2-(((S)-1-(cyclopropylamino)-6,6-difluoro-1,2-dioxoheptan-3-yl)carbamoyl)-4-(trifluoromethyl)piperidin-1-yl)-1-oxo-3-phenylpropan-2-yl)carbamate], for which the IC50 is 28 nM.
As to `COC(=O)N[C@H](C(=O)N1C[C@H]2[C@@H]([C@H]1C(=O)N[C@@H](CCC(C)(F)F)C(=O)C(=O)NC1CC1)C21CCCCC1)C(C)(C)C` [Example 69, Methyl ((S)-1-((1R,2S,5S)-2-(((S)-1-(cyclopropylamino)-6,6-difluoro-1,2-dioxoheptan-3-yl)carbamoyl)-3-azaspiro[bicyclo[3.1.0]hexane-6,1'-cyclohexan]-3-yl)-3,3-dimethyl-1-oxobutan-2-yl)carbamate], the IC50 was found to be 31 nM.
`COC(=O)N[C@H](C(=O)N1C[C@H](OC(F)(F)F)C[C@H]1C(=O)N[C@@H](CCC(C)(F)F)C(=O)C(=O)NC1CC1)C(C)(C)C` [Example 70, Methyl ((S)-1-((2S,4R)-2-(((S)-1-(cyclopropylamino)-6,6-difluoro-1,2-dioxoheptan-3-yl)carbamoyl)-4-(trifluoromethoxy)pyrrolidin-1-yl)-3,3-dimethyl-1-oxobutan-2-yl)carbamate]: the IC50 came to 36 nM.
The figure for `COC(=O)N[C@H](C(=O)N1C[C@H](C(F)(F)F)C[C@H]1C(=O)N[C@@H](CCC(C)(F)F)C(=O)C(=O)NC1CC1)C(C)(C)F` [Example 71, Methyl ((R)-1-((2S,4R)-2-(((S)-1-(cyclopropylamino)-6,6-difluoro-1,2-dioxoheptan-3-yl)carbamoyl)-4-(trifluoromethyl)pyrrolidin-1-yl)-3-fluoro-3-methyl-1-oxobutan-2-yl)carbamate] is 43 nM; for `COC(=O)N[C@H](C(=O)N1CC2(CCCCC2)C[C@H]1C(=O)N[C@@H](CCC(C)(F)F)C(=O)C(=O)NC1CC1)C1CCOCC1` [Example 74, Methyl ((S)-2-((S)-3-(((S)-1-(cyclopropylamino)-6,6-difluoro-1,2-dioxoheptan-3-yl)carbamoyl)-2-azaspiro[4.5]decan-2-yl)-2-ox0-1-(tetrahydro-2H-pyran-4-yl)ethyl)carbamate] it is 69 nM.
For `CNC(=O)N[C@H](C(=O)N1CC2(CCCCC2)C[C@H]1C(=O)N[C@@H](CCC(C)(F)F)C(=O)C(=O)NC1CC1)C(C)(C)C` [Example 75, (S)-N-((S)-1-(cyclopropylamino)-6,6-difluoro-1,2-dioxoheptan-3-yl)-2-((S)-3,3-dimethyl-2-(3-methylureido)butanoyl)-2-azaspiro[4.5]decane-3-carboxamide], the concentration for half-maximal inhibition (IC50) is 82 nM.
Regarding `COC(=O)N[C@H](C(=O)N1CC(C)(C)C[C@H]1C(=O)N[C@@H](CCC(C)(F)F)C(=O)C(=O)NC1CC1)C(C)(C)C` [Example 76, Methyl ((S)-1-((S)-2-(((S)-1-(cyclopropylamino)-6,6-difluoro-1,2-dioxoheptan-3-yl)carbamoyl)-4,4-dimethylpyrrolidin-1-yl)-3,3-dimethyl-1-oxobutan-2-yl)carbamate], the half-maximal inhibitory concentration (IC50) was 87 nM.
For `COC(=O)N[C@H](C(=O)N1CC2(CCCCC2)C[C@H]1C(=O)N[C@@H](CCC(C)(F)F)C(=O)C(N)=O)C(C)(C)C` [Example 78, Methyl ((S)-1-((S)-3-(((S)-1-amino-6,6-difluoro-1,2-dioxoheptan-3-yl)carbamoyl)-2-azaspiro[4.5]decan-2-yl)-3,3-dimethyl-1-oxobutan-2-yl)carbamate], the IC50 was found to be 12 nM.
For `COC(=O)N[C@H](C(=O)N1C[C@H]2CCCC[C@H]2C[C@H]1C(=O)N[C@@H](CCC(C)(F)F)C(=O)C(=O)NC1CC1)C(C)(C)C` [Example 80, methyl ((S)-1-((3S,4aS,8aS)-3-(((S)-1-(cyclopropylamino)-6,6-difluoro-1,2-dioxoheptan-3-yl)carbamoyl)octahydroisoquinolin-2(1H)-yl)-3,3-dimethyl-1-oxobutan-2-yl)carbamate], the IC50 came out at 12 nM.
The figure for `CNC(=O)C(=O)[C@H](CCC(C)(F)F)NC(=O)[C@@H]1[C@@H](C(F)(F)F)CCN1C(=O)[C@@H](NC(=O)OC)C(C)(C)C` [Example 81, methyl ((S)-1-((2S,3S)-2-(((S)-6,6-difluoro-1-(methylamino)-1,2-dioxoheptan-3-yl)carbamoyl)-3-(trifluoromethyl)pyrrolidin-1-yl)-3,3-dimethyl-1-oxobutan-2-yl)carbamate] is 44 nM.
The figure for `CNC(=O)C(=O)[C@H](CCC(C)(F)F)NC(=O)[C@@H]1CC[C@H](C)N1C(=O)[C@@H](NC(=O)OC)C(C)(C)C` [Example 85, methyl ((S)-1-((2S,5S)-2-(((S)-6,6-difluoro-1-(methylamino)-1,2-dioxoheptan-3-yl)carbamoyl)-5-methylpyrrolidin-1-yl)-3,3-dimethyl-1-oxobutan-2-yl)carbamate] is 257 nM.

(Values after patent publication US20250223259A1, “PROTEASE INHIBITORS FOR TREATING OR PREVENTING CORONAVIRUS INFECTION” (Merck Sharp & Dohme LLC, priority 2022, published 2025).)
